Read-outs that look alike come from different tables or passages of the source. Ends that are not written are not given here.
Legend:
[1] = tested on: Huanglongbing pathogen CLas; format: cell-based, Candidatus Liberibacter asiaticus (CLas); details: for CLas titer in infected leaf midribs: 1 μM artificially synthesized peptide; for number of pathogens in citrus infected with Huanglongbing: summary statement, demonstrated by experiments
CLas cells = format: cell-based, Candidatus Liberibacter asiaticus (CLas); details: for lysis of Huanglongbing pathogens: summary statement, demonstrated by experiments
[2] = tested on: Huanglongbing pathogen CLas; details: for IC50: read-out: CLas half inhibitory concentration (IC50), treated for 48 hours, FIG. 4C
[3] = tested on: Huanglongbing pathogen CLas; format: in vivo, Candidatus Liberibacter asiaticus (CLas)
[4] = tested on: Huanglongbing pathogen CLas; format: cell-based, Candidatus Liberibacter asiaticus (CLas); details: for inhibitory effect on CLas after heat pretreatment: used at 1 μM, 48 h, compared with BSA, FIG. 4D
Huanglongbing pathogens = format: in vivo, citrus (Chunmi orange); details: field, whole plant, same injection method, two months after treatment; FIG. 6

Row | Sequence | CLas titer in infected leaf midribs ([1]; 48 h, FIG. 4A) | number of pathogens in citrus infected with Huanglongbing [1] | lysis of Huanglongbing pathogens (CLas cells) | other results
1 | DPMIWGYVMLNDRLSK [AMP9-16, truncated peptide of AMP9] | significantly reduce the CLas titer | reduce the number of pathogens | promote lysis of Huanglongbing pathogens | 
2 | DPMIWGYVMLNDSK [AMP-β, variant containing conserved β-sheet region; synthesized and also made by prokaryotic expression] | significantly reduce the CLas titer | reduce the number of pathogens | promote lysis of Huanglongbing pathogens | 
3 | DPMIWGYVMLSESK [AMP3-14, DPMIWGYVMLSESK] | significantly reduce the CLas titer | reduce the number of pathogens | promote lysis of Huanglongbing pathogens | effectiveness in reducing the CLas titer compared with AMP3 ([2]; from IC50 values at 48 hours): more effective in reducing the CLas titer; IC50 [2]: 1 µM; CLas titer in infected leaf veins ([1]; 100 nM artificially synthesized peptide, 48 h, FIG. 4A): significantly reduce the CLas titer; symptoms of yellowing in leaves of infected plants ([3]; 1 μM solution, continuous trunk infusion, 6 months, FIG. 5B): disappeared; Ct value of CLas in infected plants ([3]; 1 μM solution, continuous trunk infusion, 6 months, FIG. 5C): not significantly different from that of healthy plants; Ct value of CLas in treated plants after removal of treatment ([3]; treatment removed after 7 months, titer monitored continuously): still not significantly different from that of healthy plants; destruction of pathogenic cells compared with AMP3 (transmission electron microscope) (CLas cells; 1 μM, 24 hours, FIG. 7): better effect on the destruction of pathogenic cells; thermal stability ([4]; 35° C. and 45° C. for 20 hours): good thermal stability; inhibitory effect on CLas after heat pretreatment ([4]; pretreated at 35° C. for 20 hours): still significant; inhibitory effect on CLas after heat pretreatment ([4]; pretreated at 45° C. for 20 hours): still significant; growth of new citrus leaves (Huanglongbing pathogens): significantly promote the growth of new citrus leaves
4 | DPMIWGYVMLSESKDPMIWGYVMLNDSK [AMP-2β, dimer of β-sheet fragments obtained by prokaryotic expression and purification] |  | reduce the number of pathogens | promote lysis of Huanglongbing pathogens | 
5 | MKKVKNIFHKIANA [AMP-α, contains only an α-helix fragment] | not able to change the CLas titer |  |  | 
6 | MKKVKNIFHKIANADPMIWGYVML [AMP3-24, truncated peptide of AMP3] |  | reduce the number of pathogens | promote lysis of Huanglongbing pathogens | 
7 | MKKVKNIFHKIANADPMIWGYVMLNDRLSK [AMP9] | significantly reduce the CLas titer | reduce the number of pathogens | promote lysis of Huanglongbing pathogens | 
8 | MKKVKNIFHKIANADPMIWGYVMLSESK [AMP3] | significantly reduce the CLas titer | reduce the number of pathogens | promote lysis of Huanglongbing pathogens | IC50 [2]: 52.1 µM
